From ChEMBL document CHEMBL1154344, “New quaternary ammonium oxicam derivatives: synthesis and in vitro antiosteoarthritis evaluation” (2010)
Activity calls are given as the source filed them. No cut-off for these calls is given here.

Experiments:
[1] = (§1) Antiosteoarthritis activity in bovine articular chondrocytes assessed as induction of aggrecan mRNA expression at 1 uM after 5 days by Northern blot analysis relative to control; format: functional, Bos taurus
Bos taurus [2] = organism: Bos taurus; test: Induction of TGF-beta1 mRNA expression in bovine articular chondrocytes at 10 uM after 5 days by RT-PCR analysis; format: functional, cell-based
Bos taurus [3] = organism: Bos taurus; test: Induction of TGF receptor type 1 mRNA expression in bovine articular chondrocytes at 1 uM after 5 days by RT-PCR analysis; format: functional, cell-based
Bos taurus [4] = organism: Bos taurus; test: Induction of TGF receptor type 1 mRNA expression in bovine articular chondrocytes at 10 uM after 5 days by RT-PCR analysis in presence of IL-1; format: functional, cell-based
Bos taurus [5] = organism: Bos taurus; test: Induction of TGF-beta1 mRNA expression in bovine articular chondrocytes at 1 uM after 5 days by RT-PCR analysis in presence of IL-1; format: functional, cell-based
[6] = (§2) Antiosteoarthritis activity in bovine articular chondrocytes assessed as induction of aggrecan mRNA expression at 0.1 uM after 5 days by Northern blot analysis relative to control; format: functional, Bos taurus
Bos taurus [7] = organism: Bos taurus; test: Induction of TGF receptor type 1 mRNA expression in bovine articular chondrocytes at 1 uM after 5 days by RT-PCR analysis in presence of IL-1; format: functional, cell-based
Bos taurus [8] = organism: Bos taurus; test: Induction of TGF-beta1 mRNA expression in bovine articular chondrocytes at 1 uM after 5 days by RT-PCR analysis; format: functional, cell-based
[9] = Induction of TGF-beta2 mRNA expression in bovine articular chondrocytes at 1 uM after 5 days by RT-PCR analysis relative to control; format: functional, Bos taurus
Bos taurus [10] = organism: Bos taurus; test: (§3) Antiosteoarthritis activity in bovine articular chondrocytes assessed as inhibition of IL1-induced reduction of aggrecan mRNA expression at 1 uM after 5 days by Northern blot analysis relative to control; format: functional
[11] = (§4) Antiosteoarthritis activity in bovine articular chondrocytes assessed as inhibition of IL1-induced reduction of aggrecan mRNA expression at 10 uM after 5 days by Northern blot analysis relative to control; format: functional, Bos taurus; set-up: scale not given: the % may be the effect or the level left
Bos taurus [12] = organism: Bos taurus; test: as §4; format: functional
Bos taurus [13] = organism: Bos taurus; test: Induction of TGF-beta1 mRNA expression in bovine articular chondrocytes at 10 uM after 5 days by RT-PCR analysis in presence of IL-1; format: functional, cell-based
[14] = Induction of TGF-beta2 mRNA expression in bovine articular chondrocytes at 10 uM after 5 days by RT-PCR analysis relative to control; format: functional, Bos taurus
Bos taurus [15] = organism: Bos taurus; test: (§5) Antiosteoarthritis activity in bovine articular chondrocytes assessed as inhibition of IL1-induced reduction of aggrecan mRNA expression at 0.1 uM after 5 days by Northern blot analysis relative to control; format: functional
Bos taurus [16] = organism: Bos taurus; test: Induction of TGF receptor type 1 mRNA expression in bovine articular chondrocytes at 10 uM after 5 days by RT-PCR analysis; format: functional, cell-based
Bos taurus [17] = organism: Bos taurus; test: as §1; format: functional
Bos taurus [18] = organism: Bos taurus; test: as §2; format: functional
Bos taurus [19] = organism: Bos taurus; test: (§6) Antiosteoarthritis activity in bovine articular chondrocytes assessed as induction of aggrecan mRNA expression at 10 uM after 5 days by Northern blot analysis relative to control; format: functional
[20] = Induction of TGF receptor type 2 mRNA expression in bovine articular chondrocytes at 10 uM after 5 days by RT-PCR analysis relative to control; format: functional, Bos taurus
Bos taurus [21] = organism: Bos taurus; test: Antiosteoarthritis activity in bovine articular chondrocytes assessed as restoration of IL-1-inuced inhibition of proteoglycans biosynthesis at 0.1 to 10 uM; format: functional, cell-based
[22] = Antiosteoarthritis activity in bovine articular chondrocytes assessed as inhibition of IL1-induced reduction of aggrecan mRNA expression at 0.1 uM after 5 days by RT-PCR analysis relative to control; format: functional; settings: Bos taurus, 120 h
[23] = (§7) Antiosteoarthritis activity in bovine articular chondrocytes assessed as induction of aggrecan mRNA expression at 10 uM after 5 days by RT-PCR analysis relative to control; format: functional, Bos taurus
Bos taurus [24] = organism: Bos taurus; test: as §7; format: functional
[25] = Antiosteoarthritis activity in bovine articular chondrocytes assessed as inhibition of IL1-induced reduction of aggrecan mRNA expression at 1 uM after 5 days by RT-PCR analysis relative to control; format: functional; settings: Bos taurus, 120 h
[26] = Induction of TGF receptor type 2 mRNA expression in bovine articular chondrocytes at 1 uM after 5 days by RT-PCR analysis relative to control; format: functional, Bos taurus
[27] = as §3; format: functional, Bos taurus; set-up: scale not given: the % may be the effect or the level left
[28] = as §6; format: functional; settings: Bos taurus, 120 h; values are per cent of control
[29] = as §5; format: functional, Bos taurus; set-up: scale not given: the % may be the effect or the level left

Structure (SMILES)	Activity [6]	Activity (Bos taurus [10])	Activity (Bos taurus [12])	Activity (Bos taurus [15])	Activity (Bos taurus [17])	Activity (Bos taurus [18])	Activity (Bos taurus [19])	also measured
CN(C)CCCNC(=O)C1=C(O)c2ccccc2S(=O)(=O)N1C [PROPOXICAM]	25%	Active	Active	Active	–	–	–	Activity [1]: 25%; Activity (Bos taurus [2]): inactive; Activity (Bos taurus [3]): inactive; Activity (Bos taurus [4]): inactive; Activity (Bos taurus [5]): inactive; Activity (Bos taurus [7]): inactive; Activity (Bos taurus [8]): inactive; Activity [9]: 31%; Activity [11]: 65%; Activity (Bos taurus [13]): inactive; Activity [14]: 22%; Activity (Bos taurus [16]): inactive
CN1C(C(=O)NCCCC[N+](C)(C)C)=C(O)c2ccccc2S1(=O)=O	–	inactive	inactive	inactive	inactive	inactive	inactive	–
CN1C(C(=O)NCCC[N+](C)(C)C)=C(O)c2ccccc2S1(=O)=O.[I-]	–	–	–	–	–	–	–	Activity [20]: 18%; Activity (Bos taurus [21]): Active; Activity (Bos taurus [2]): inactive; Activity (Bos taurus [3]): inactive; Activity (Bos taurus [4]): inactive; Activity (Bos taurus [5]): inactive; inhibition at 0.1 µM [22]: 150%; Activity [23]: 62%; Activity (Bos taurus [24]): Active; Activity (Bos taurus [7]): inactive; Activity (Bos taurus [8]): inactive; Activity [9]: 30%; Activity (Bos taurus [13]): inactive; Activity [14]: 37%; inhibition at 1 µM [25]: 63%; Activity [26]: 45%; Activity (Bos taurus [16]): inactive
CN1C(C(=O)NCCC[n+]2ccccc2)=C(O)c2ccccc2S1(=O)=O	–	inactive	inactive	inactive	inactive	inactive	inactive	–
CC[N+](CC)(CC)CCCNC(=O)C1=C(O)c2ccccc2S(=O)(=O)N1C	–	inactive	inactive	inactive	inactive	inactive	inactive	–
CC[N+](C)(C)CCCNC(=O)C1=C(O)c2ccccc2S(=O)(=O)N1C	–	inactive	inactive	inactive	inactive	inactive	inactive	–
CN1C(C(=O)Nc2ccccn2)=C(O)c2ccccc2S1(=O)=O [PIROXICAM]	23%	Active	Active	Active	–	–	–	Activity [1]: 37%
CC[N+](C)(CC)CCCNC(=O)C1=C(O)c2ccccc2S(=O)(=O)N1C.[I-]	31%	Active	Active	Active	–	–	–	Activity (Bos taurus [21]): Active; Activity [23]: 31%; Activity [27]: 130%; response, % of control at 10 µM [28]: 216%; inhibition at 1 µM [25]: 130%; Activity [29]: 216%
